Data published in PubChem BioAssay AID1117319 (Southern Research Institute, 2015).
Records with an inconclusive call do not appear.

Molecular target: Virion infectivity factor (Human immunodeficiency virus type 1 group M subtype B (isolate BH10)) + Virion infectivity factor (Human immunodeficiency virus type 1 group M subtype B (isolate BRU/LAI)) + Virion infectivity factor (Human immunodeficiency virus type 1 group M subtype B (isolate PCV12)) + Virion infectivity factor (Human immunodeficiency virus type 1 group M subtype B (isolate HXB2)) + DNA dC->dU-editing enzyme APOBEC-3G (Homo sapiens) (UniProt P69720+P69721+P69722+P69723+Q9HC16)
Test: inhibitors of Vif binding to APOBEC3G peptide, primary screen, biochemical, TR-FRET, GST-Vif 1-94, biotin-A3G peptide, dose response retest (AID 1117319);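 note: Vif residues 1-94 fused to GST binding biotinylated APOBEC3G peptide 110-148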

First: NS(=O)(=O)c1ccc(CCNC(=O)CCS(=O)(=O)c2ccc(Br)cc2)cc1
Second: COC(=O)c1ccccc1NC(=O)CCS(=O)(=O)c1ccc(Br)cc1
The IC50 of the first is 17-fold higher: 25 µM for the first, 1.49 µM for the second. The second is the more potent here.

Compared with Clc1ccc(OCc2nn3c(-c4ccco4)nnc3s2)c(Cl)c1, Brc1c(CSc2nnc(-c3ccco3)o2)nc2ccccn12 is 2.1-fold lower in IC50: 63.1 µM for the first, 30.6 µM for the second.

O=S(=O)(O)c1cc(O)c(N=Nc2ccc(O)cc2O)c2ccccc12 and Oc1ccc(/C=N/N=C/c2ccc(O)c(O)c2)cc1O are within 1.5-fold of each other in IC50: 5.25 µM for the first, 4.82 µM for the second.

Going from CCCc1cc(=O)oc2cc(C)c(CN3CCCC3)c(O)c12 to CC1CCCCN1Cc1ccc(N(C)C)cc1 (configuration not stated), the IC50 rises from 3.46 µM to 66.6 µM (19-fold).

Compared with Cc1ccc(C=C2C(Cl)=C(Cl)C(Cl)=C2Cl)cc1, Cc1cc(O)c(C(C)C)cc1N=Cc1ccc([N+](=O)[O-])cc1 is 9-fold higher in IC50: 2.1 µM for the first, 19 µM for the second. The first is the more potent here.

First: CCOc1cccc(=O)c2c(C)n(CC(=O)c3ccccc3)c(C)c12
Second: CCN(CC)c1ccc(C2NC(=O)NC(C)=C2C(=O)Nc2ccccc2)cc1 (configuration not stated)
The IC50 of the first is 10-fold lower: 8.28 µM for the first, 84.4 µM for the second.

Going from CCC(c1ccc(O)c(O)c1)C(CC)c1ccc(O)c(O)c1 (configuration not stated) to O=c1cc(-c2ccc(O)c(O)c2)oc2cc(O)c(C3OC(CO)C(O)C(O)C3O)c(O)c12 (configuration not stated), the IC50 rises from 6.46 µM to 12.7 µM (2-fold).

Cc1c2ccccc2nc2c(F)c(N(C)C)c(F)c(F)c12 and Cc1ccc(-n2nc(C)c(C3C(C#N)=C(N)Oc4c3c(=O)oc3ccccc43)c2Cl)cc1 (configuration not stated) are within 1.5-fold of each other in IC50: 15.7 µM for the first, 11.1 µM for the second.

Going from O=C(O)c1cc(N2N=C(C(F)(F)F)/C(=C/C=C/c3ccco3)C2=O)ccc1Cl to O=C1NC(=O)N(c2ccccc2)C(=O)/C1=C\C=C\c1ccccc1, the IC50 rises from 1.04 µM to 42 µM (40-fold). The first is the more potent here.

Going from O=C(/C=C/c1cccs1)Nc1ccc(Br)cn1 to Cc1cc(NC(=O)Cc2cccs2)no1, the IC50 falls from 10.2 µM to 3.92 µM (2.6-fold). The second is the more potent here.

First: COc1ccc2c(c1)C(=O)c1ccccc1CO2
Second: COc1ccc(S(=O)(=O)N(C(C)=O)c2ccc3oc(=O)sc3c2)cc1
The IC50 of the first is 1.7-fold lower: 52.2 µM for the first, 88.4 µM for the second.

C=C(C)C(=O)Nc1ccc2c(c1)OCCOCCOCCO2 and O=C(O)C1Nc2c(C(=O)N3CCOCC3)cccc2C2C=CCC12 (configuration not stated) are within 1.5-fold of each other in IC50: 1.89 µM for the first, 2.02 µM for the second.

CN1CCN(C2=C(Cl)C(=O)c3ccccc3C2=O)CC1 and O=C1C(Cl)=C(Nc2ccc3cn[nH]c3c2)C(=O)c2ccccc21 are within 1.5-fold of each other in IC50: 4.42 µM for the first, 3.58 µM for the second.

Going from COc1cccc(CNCCc2c[nH]c3ccccc23)c1OCc1ccccc1 to Oc1ccc(N=Cc2ccc(OCc3ccccc3)cc2)cc1, the IC50 falls from 56 µM to 2.11 µM (27-fold).

First: CC1=C(C(=O)Nc2ccccc2)C(c2ccc(C)o2)n2c(s/c(=C\c3ccco3)c2=O)=N1 (configuration not stated)
Second: O=C(CCCN1C(=O)/C(=C\c2ccco2)SC1=S)Nc1cccc2ccccc12
The IC50 of the first is 2.1-fold higher: 5.34 µM for the first, 2.56 µM for the second. The second is the more potent here.

First: COc1ccccc1-n1cnc2cc(NCc3cccs3)ccc21
Second: N#Cc1ccc(CSc2nnc(Cc3cccs3)n2Cc2ccco2)cc1
The IC50 of the first is 1.8-fold higher: 82.7 µM for the first, 46.5 µM for the second. The second is the more potent here.

First: Nc1ccc(N2CCCCCC2)cc1
Second: Nc1ccc(N2CCN(Cc3ccccc3Cl)CC2)c(Cl)c1
The IC50 of the first is 80-fold lower: 1.06 µM for the first, 85.1 µM for the second. The first is the more potent here.

First: O=C(c1ccccc1Br)N1CCN(c2ccccc2)CC1
Second: O=C(O)c1cccc(CSc2nnc(COc3ccccc3)o2)c1
The IC50 of the first is 2.3-fold lower: 38.7 µM for the first, 88.2 µM for the second.

First: CCCC(=Nc1ccc(N)cc1)C1=C(O)C(C(=O)OC)C(C)(C)CC1=O (configuration not stated)
Second: COc1cc(NC(=O)CS(=O)(=O)c2ccc(C)cc2)cc(OC)c1OC
The IC50 of the first is 8.4-fold lower: 2.76 µM for the first, 23.3 µM for the second.

CC(=O)NCc1c(Cl)cccc1-n1cccc1 and CCc1noc(N)c1C(=O)Nc1ccc(F)c(Cl)c1 are within 1.5-fold of each other in IC50: 72.7 µM for the first, 74.6 µM for the second.

Going from O=C(CCN1C(=O)/C(=C/c2cccs2)SC1=S)NC1=NCCS1 to C=CCn1c(COc2ccc(F)cc2)nnc1SCC(=O)NC(=O)NCc1ccco1, the IC50 rises from 12.3 µM to 40.7 µM (3.3-fold). The first is the more potent here.

First: CC(=O)Nc1ccc(S(=O)(=O)Nc2nc3ccccc3nc2Nc2ccc(C(=O)O)c(O)c2)cc1
Second: CCOC(=O)c1ccc(NS(=O)(=O)c2ccc3oc(=O)[nH]c3c2)cc1
The IC50 of the first is 5.1-fold lower: 17.4 µM for the first, 88.2 µM for the second. The first is the more potent here.

Compared with S=c1[nH]nc(COc2ccc3c(c2)OCO3)n1-c1ccccc1, O=C1NC(=O)N(c2cccc(Cl)c2)C(=O)/C1=C\c1ccc(Sc2nc3ccccc3[nH]2)o1 is 4.8-fold lower in IC50: 48.3 µM for the first, 10.1 µM for the second.

Going from Cc1ccc(/C=C/C2=Cc3c(sc(NC(=O)CSc4n[nH]c(N)n4)c3C#N)C(C)(C)C2)o1 to COc1ccc(OC)c(C2C(C(=O)Nc3ccc(F)cc3)=C(C)Nc3nc(CCCO)nn32)c1 (configuration not stated), the IC50 rises from 0.8 µM to 54.6 µM (68-fold). The first is the more potent here.

First: CCOc1cccc(OCC)c2c(C)[n+](CC3CCCO3)c(C)c1-2 (configuration not stated)
Second: CCOC(=O)C1CCN(C(=O)Nc2ccc3nc(-c4ccco4)c(-c4ccco4)nc3c2)CC1
The IC50 of the first is higher: 0.85 µM for the first, less than 0.432 µM for the second. The second is the more potent here.

Compared with CSc1nnc(-c2ccco2)c(-c2ccco2)n1, O=C1NC(=O)C(=CN2CCc3ccccc32)C(=O)N1 is 61-fold higher in IC50: 1.49 µM for the first, 91.3 µM for the second. The first is the more potent here.

Compared with COc1cc(OC)c2c(O)c3c(c(-c4c5c(c(O)c6c(OC)cc(OC)cc46)CO[C@@H](C)[C@H]5O)c2c1)[C@H](O)[C@H](C)OC3, O=C1C=CC(=O)c2c(O)c(CO)c(CO)c(O)c21 is 9.8-fold lower in IC50: 4.61 µM for the first, 0.47 µM for the second. The second is the more potent here.

Compared with O=C(CCS(=O)(=O)c1ccc(Br)cc1)NC1CCCC1, Cc1cc(C)n(CC(=O)NNC(=O)c2ccc(NC(=O)CC#N)cc2)n1 is 4.5-fold higher in IC50: 20.5 µM for the first, 91.3 µM for the second. The first is the more potent here.

CC[n+]1ccc(C)c2cc(P(=O)(c3ccccc3)c3ccccc3)ccc21 gave an IC50 of 3.93 µM.
